# From publication PMC8049054, “Systematic Assessment of Fragment Identification for Multitarget Drug Design” (Chemmedchem, 2021)
# Target: T1, leukotriene A4 hydrolase (LTA4H) (Homo sapiens, UniProt P09960)
# T1 construct: made in house; host or cells: E. coli BL21 (DE3)
# T1 sequence (P09960 1-611): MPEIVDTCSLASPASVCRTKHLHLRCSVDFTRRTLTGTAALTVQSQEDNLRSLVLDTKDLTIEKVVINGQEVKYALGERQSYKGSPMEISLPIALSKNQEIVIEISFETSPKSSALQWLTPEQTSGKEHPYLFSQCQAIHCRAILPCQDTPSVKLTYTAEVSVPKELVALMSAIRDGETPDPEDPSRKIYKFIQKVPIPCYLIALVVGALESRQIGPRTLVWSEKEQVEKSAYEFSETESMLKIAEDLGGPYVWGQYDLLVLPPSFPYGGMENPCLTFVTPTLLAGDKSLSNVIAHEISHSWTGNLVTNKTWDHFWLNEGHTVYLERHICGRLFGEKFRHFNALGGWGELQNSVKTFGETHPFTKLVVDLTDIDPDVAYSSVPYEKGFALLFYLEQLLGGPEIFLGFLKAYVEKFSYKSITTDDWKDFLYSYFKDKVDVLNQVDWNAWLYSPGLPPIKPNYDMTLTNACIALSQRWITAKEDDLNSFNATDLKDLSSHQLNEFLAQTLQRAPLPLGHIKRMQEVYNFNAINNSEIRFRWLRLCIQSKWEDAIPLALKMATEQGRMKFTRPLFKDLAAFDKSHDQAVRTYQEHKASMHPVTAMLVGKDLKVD
# Test: LTA4H activity assay (fluorogenic substrate Arg-AMC)
# Assay type: biochemical
# Conditions: for LTA4H LE: ligand efficiency calculated from IC50; for IC50: mean±standard deviation of three independent experiments
# Protocol: For hit validation, we employed secondary assays with orthogonal readouts to confirm fragment activities. Biochemical activity assays were chosen for the enzymes sEH, LTA4H, and 5‐LOX. […] RXRα and FXR modulation was assessed in cell‐based hybrid reporter gene assays. All ten compounds were tested at a single concentration of 500 μM in the sEH and LTA4H activity assays and with a concentration of 100 μM on 5‐LOX, RXRα, and FXR. Fragments showing an inhibition greater than 50 % (sEH‐H and LTA4H) or greater than 70 % (5‐LOX) as well as the hits determined in the DSF experiments were further characterized in full concentration‐response curves between 0.1 and 1000 μM. […] As alternative cell‐free assay we employed isothermal titration calorimetry (ITC) to determine binding affinity of the fragments towards the LBDs of both nuclear receptors. ITC was performed with a protein concentration of 50 μM and compound concentrations of 250 μM.
# The 10 fragments showing dual activity in the DSF experiments were validated by functional assay screening with a fixed concentration of 500 µM in case of sEH-H and LTA4H, 100 µM in case of 5-LOX and 30 µM, 10 µM and 5 µM in case of FXR and […]
# % (5-LOX) as well as the hits determined in the DSF experiments were further measured with concentrations between 1000 µM and 0.1 µM (sEH-H and LTA4H) and between 300 µM and 1 µM (5-LOX). The sEH and LTA4H activity assays were performed as triplicate and repeated 3 times. The 5-LOX activity assay was performed with one point per concentration and repeated 3 times Raw data was first analyzed in Microsoft Office Excel (2013), before IC50 curves were plotted and further analyzed using GraphPad Prism 7 and GraphPad Prism 8 for the shown graphs .
# The eight approved drugs were measured in the orthogonal assay systems analogous to the fragments. The approved drugs were […]
# For the sEH-H and LTA4H, they were measured as triplicate in concentrations between 1000 µM and 1 µM and each measurement was repeated three times. […]
# Raw data was processed according to the fragments. […]
# The LTA4H activity assay was performed adapted from Hiesinger et al.3.As in the sEH-H measurement 1 µl of compound dilution in DMSO or pure DMSO (for the positive and negative control) was placed in a black 96-well plate (Thermo Scientific™ Nunc™ F96 MicroWell™ Black Polystyrene Plate) and then 89 µl of protein-mix or buffer mix (without protein as negative control) were added and incubated for 30 min at room temperature.
Compound,LTA4H LE [kcal/mol],IC50 [µM]
CCCCOc1cc(C(=O)OC)ccc1N [Compound 3],0.39,24.6 ± 3.2
Oc1ccc(Cc2ccccc2)cc1 [Compound 4],–,3 ± 0.5
Oc1ccc2cc[nH]c2c1 [Compound 5],–,> 300
CCN(Cc1ccccc1)c1ccccc1 [Compound 7],–,> 300
Oc1ccc(-c2ccc(F)cc2F)cc1 [Compound 9],0.40,36.2 ± 7.6
Fc1ccc(-c2c[nH]c3ccccc23)cc1 [Compound 10],0.31,255 ± 24.9
